# Measured values: PMC5439695 (PLoS ONE, 2017)
# Where “and” joins values, the source holds several entries; their conditions need not be identical. Equal values may be shown once. Read-outs that look alike come from different tables or passages of the source.
# How the values were obtained:
# [1] = system: HEK293 and HepG2 cell lines
# [2] = system: HepG2 cells; assay: CellTox Green Cytotoxicity Assay (flor) in HepG2, HepG2[flor]; assay type: cell-based, human; settings: for EC50: HepG2, flor, n=136, read-out: EC50;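 as to hepg2 flor emax 0: percent activity versus DMSO-only wells with baseline rescaled to 0%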;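 as to hepg2 flor emax 40: percent activity versus DMSO-only wells with baseline rescaled to 0%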
# [3] = system: HEK293 cells; settings: for IC50: HEK293, glo, mean and SD, n=136; as to hek293 flor emax 0: unit not given here
# [4] = system: HEK293 cells; settings: for EC50: HEK293, flor, mean and SD, n=136; as to hek293 flor emax 0: unit not given here
# [5] = system: HepG2 cells; settings: for IC50: HepG2, glo, n=136
# [6] = POD potency, max over real-time cytotoxicity assays
# [7] = POD potency, median over real-time cytotoxicity assays
# [8] = HEK293[glo], HEK293[flor], HepG2[glo], HepG2[flor]
compound,measurement,setting,value
CCCCCCCCCCCCn1cc[n+](C)c1.F[B-](F)(F)F,Cyto(realtime)_max,[1]; [6],6.57 log10(M)*-1
same,Cyto(realtime)_median,[1]; [7],4.55 log10(M)*-1
CCCCCCCCCCCCn1cc[n+](C)c1.O=S(=O)([O-])C(F)(F)F,Cyto(realtime)_max,[1]; [6],6.68 log10(M)*-1
same,Cyto(realtime)_median,[1]; [7],4.57 log10(M)*-1
CCCCCCCCCCCCCCCC[N+](C)(C)C.[Cl-],Cyto(realtime)_max,[1]; [6],5.58 log10(M)*-1
same,Cyto(realtime)_median,[1]; [7],4.79 log10(M)*-1
CCCCCCCCCCCCCCCCn1cc[n+](C)c1.F[B-](F)(F)F,Cyto(realtime)_max,[1]; [6],6.28 log10(M)*-1
same,Cyto(realtime)_median,[1]; [7],4.62 log10(M)*-1
CCCCCCCCCCCCCC[n+]1ccn(C)c1.[Cl-],Cyto(realtime)_max,[1]; [6],6.67 log10(M)*-1
same,Cyto(realtime)_median,[1]; [7],4.69 log10(M)*-1
CCCCCCCCCCCCCC[N+](C)(C)C.[Cl-],Cyto(realtime)_max,[1]; [6],5.94 log10(M)*-1
same,Cyto(realtime)_median,[1]; [7],4.88 log10(M)*-1
CCCCCCCCCCCCCC[P+](CCCC)(CCCC)CCCC.CCCCCCCCCCCCc1ccc(S(=O)(=O)[O-])cc1,Cyto(realtime)_max,[1]; [6],6.97 log10(M)*-1
same,Cyto(realtime)_median,[1]; [7],5.03 log10(M)*-1
CCCCCCCCCCCCCC[P+](CCCCCC)(CCCCCC)CCCCCC.N#C[N-]C#N,Cyto(realtime)_max,[1]; [6],5.83 log10(M)*-1
same,Cyto(realtime)_median,[1]; [7],4.81 log10(M)*-1
1-Ethyl-3-methylimidazolium diethylphosphate,Cyto(realtime)_max,[1],6.32 log10(M)*-1
same,Cyto(realtime)_median,[1],4.65 log10(M)*-1
"N=C1NC(=N)c2cc3ccccc3cc21 [1,3-Diiminobenz(f)isoindoline]",Cyto(realtime)_max,[1]; [6],4.75 log10(M)*-1
same,Cyto(realtime)_median,[1]; [7],4.40 log10(M)*-1
CCCC[n+]1ccc(C)cc1.[Cl-] [1-Butyl-4-methylpyridinium chloride],Cyto(realtime)_max,[1]; [6],5.01 log10(M)*-1
same,Cyto(realtime)_median,[1]; [7],4.39 log10(M)*-1
CCCCCCCCCCCCn1cc[n+](C)c1.[Cl-] [1-Dodecyl-3-methylimidazolium chloride],Cyto(realtime)_max,[1]; [6],7.06 log10(M)*-1
same,Cyto(realtime)_median,[1]; [7],4.44 log10(M)*-1
"OCC(c1ccc(Cl)cc1)c1ccc(Cl)cc1 [2,2-Bis(4-chlorophenyl)ethanol]",Cyto(realtime)_max,[1]; [6],4.70 log10(M)*-1
same,Cyto(realtime)_median,[1]; [7],4.57 log10(M)*-1
CCCCC(CC)COC(=O)c1ccc(O)cc1 (stereo not shown) [2-Ethylhexylparaben],Cyto(realtime)_max,[1]; [6],4.68 log10(M)*-1
same,Cyto(realtime)_median,[1]; [7],4.25 log10(M)*-1
"Cl.Cl.Nc1ccc(-c2ccc(N)c(Cl)c2)cc1Cl [3,3'-Dichlorobenzidine dihydrochloride]",Cyto(realtime)_max,[1]; [6],5.37 log10(M)*-1
same,Cyto(realtime)_median,[1]; [7],4.59 log10(M)*-1
"CC(C)(C)CC(C)(C)c1ccc(O)cc1 [4-(1,1,3,3-tetramethylbutyl)phenol, reference compound]",cytotoxicity kinetics activity profile in the four real-time cytotoxicity assays,[1]; [8],quickly reach the maximum cytotoxic effect in at least three assays
"O=[N+]([O-])C1(Br)COCOC1 [5-Bromo-5-nitro-1,3-dioxane]",Cyto(realtime)_max,[1]; [6],4.72 log10(M)*-1
same,Cyto(realtime)_median,[1]; [7],4.41 log10(M)*-1
O=C(O)c1ccccc1O.Oc1cccc2cccnc12 [8-Quinolinol Salicylic acid (1:1)],hepg2_flor_auc,[2]; HepG2 flor,0
same,hepg2_flor_time,[2]; HepG2 flor,48
same,hepg2_flor_bin,"[2]; HepG2 flor, kinetics bin",inactive
same,hepg2_flor_emax_0,"[2]; HepG2 flor, time point 0",0
same,hepg2_flor_pod_0,"[2]; HepG2 flor, time point 0",-4.417
same,hepg2_flor_wauc_0,"[2]; HepG2 flor, time point 0",0
same,hepg2_flor_emax_8,"[2]; HepG2 flor, time point 8",0
same,hepg2_flor_pod_8,"[2]; HepG2 flor, time point 8",-4.417
same,hepg2_flor_wauc_8,"[2]; HepG2 flor, time point 8",0
same,hepg2_flor_emax_16,"[2]; HepG2 flor, time point 16",0
same,hepg2_flor_pod_16,"[2]; HepG2 flor, time point 16",-4.417
same,hepg2_flor_wauc_16,"[2]; HepG2 flor, time point 16",0
same,hepg2_flor_emax_24,"[2]; HepG2 flor, time point 24",0
same,hepg2_flor_pod_24,"[2]; HepG2 flor, time point 24",-4.417
same,hepg2_flor_wauc_24,"[2]; HepG2 flor, time point 24",0
same,hepg2_flor_emax_32,"[2]; HepG2 flor, time point 32",0
same,hepg2_flor_pod_32,"[2]; HepG2 flor, time point 32",-4.417
same,hepg2_flor_wauc_32,"[2]; HepG2 flor, time point 32",0
same,hepg2_flor_emax_40,"[2]; HepG2 flor, time point 40",0
same,hepg2_flor_pod_40,"[2]; HepG2 flor, time point 40",-4.417
same,hepg2_flor_wauc_40,"[2]; HepG2 flor, time point 40",0
same,hek293_glo_auc,[3]; HEK293 glo,0
same,hek293_glo_time,[3]; HEK293 glo,48
same,hek293_glo_bin,"[3]; HEK293 glo, kinetics bin",inactive
same,hek293_glo_emax_0,"[3]; HEK293 glo, time point 0",0
same,hek293_glo_pod_0,"[3]; HEK293 glo, time point 0",-4.417
same,hek293_glo_wauc_0,"[3]; HEK293 glo, time point 0",0
same,hek293_glo_emax_8,"[3]; HEK293 glo, time point 8",0
same,hek293_glo_pod_8,"[3]; HEK293 glo, time point 8",-4.417
same,hek293_glo_wauc_8,"[3]; HEK293 glo, time point 8",0
same,hek293_glo_emax_16,"[3]; HEK293 glo, time point 16",0
same,hek293_glo_pod_16,"[3]; HEK293 glo, time point 16",-4.417
same,hek293_glo_wauc_16,"[3]; HEK293 glo, time point 16",0
same,hek293_glo_emax_24,"[3]; HEK293 glo, time point 24",0
same,hek293_glo_pod_24,"[3]; HEK293 glo, time point 24",-4.417
same,hek293_glo_wauc_24,"[3]; HEK293 glo, time point 24",0
same,hek293_glo_emax_32,"[3]; HEK293 glo, time point 32",0
same,hek293_glo_pod_32,"[3]; HEK293 glo, time point 32",-4.417
same,hek293_glo_wauc_32,"[3]; HEK293 glo, time point 32",0
same,hek293_glo_emax_40,"[3]; HEK293 glo, time point 40",0
same,hek293_glo_pod_40,"[3]; HEK293 glo, time point 40",-4.417
same,hek293_glo_wauc_40,"[3]; HEK293 glo, time point 40",0
same,hek293_flor_auc,[4]; HEK293 flor,0
same,hek293_flor_time,[4]; HEK293 flor,48
same,hek293_flor_bin,"[4]; HEK293 flor, kinetics bin",inactive
same,hek293_flor_emax_0,"[4]; HEK293 flor, time point 0",0
same,hek293_flor_pod_0,"[4]; HEK293 flor, time point 0",-4.417
same,hek293_flor_wauc_0,"[4]; HEK293 flor, time point 0",0
same,hek293_flor_emax_8,"[4]; HEK293 flor, time point 8",0
same,hek293_flor_pod_8,"[4]; HEK293 flor, time point 8",-4.417
same,hek293_flor_wauc_8,"[4]; HEK293 flor, time point 8",0
same,hek293_flor_emax_16,"[4]; HEK293 flor, time point 16",0
same,hek293_flor_pod_16,"[4]; HEK293 flor, time point 16",-4.417
same,hek293_flor_wauc_16,"[4]; HEK293 flor, time point 16",0
same,hek293_flor_emax_24,"[4]; HEK293 flor, time point 24",0
same,hek293_flor_pod_24,"[4]; HEK293 flor, time point 24",-4.417
same,hek293_flor_wauc_24,"[4]; HEK293 flor, time point 24",0
same,hek293_flor_emax_32,"[4]; HEK293 flor, time point 32",0
same,hek293_flor_pod_32,"[4]; HEK293 flor, time point 32",-4.417
same,hek293_flor_wauc_32,"[4]; HEK293 flor, time point 32",0
same,hek293_flor_emax_40,"[4]; HEK293 flor, time point 40",0
same,hek293_flor_pod_40,"[4]; HEK293 flor, time point 40",-4.417
same,hek293_flor_wauc_40,"[4]; HEK293 flor, time point 40",0
same,hepg2_glo_auc,[5]; HepG2 glo,0
same,hepg2_glo_time,[5]; HepG2 glo,48
same,hepg2_glo_bin,"[5]; HepG2 glo, kinetics bin",inactive
same,hepg2_glo_emax_0,"[5]; HepG2 glo, time point 0",0
same,hepg2_glo_pod_0,"[5]; HepG2 glo, time point 0",-4.417
same,hepg2_glo_wauc_0,"[5]; HepG2 glo, time point 0",0
same,hepg2_glo_emax_8,"[5]; HepG2 glo, time point 8",0
same,hepg2_glo_pod_8,"[5]; HepG2 glo, time point 8",-4.417
same,hepg2_glo_wauc_8,"[5]; HepG2 glo, time point 8",0
same,hepg2_glo_emax_16,"[5]; HepG2 glo, time point 16",0
same,hepg2_glo_pod_16,"[5]; HepG2 glo, time point 16",-4.417
same,hepg2_glo_wauc_16,"[5]; HepG2 glo, time point 16",0
same,hepg2_glo_emax_24,"[5]; HepG2 glo, time point 24",0
same,hepg2_glo_pod_24,"[5]; HepG2 glo, time point 24",-4.417
same,hepg2_glo_wauc_24,"[5]; HepG2 glo, time point 24",0
same,hepg2_glo_emax_32,"[5]; HepG2 glo, time point 32",0
same,hepg2_glo_pod_32,"[5]; HepG2 glo, time point 32",-4.417
same,hepg2_glo_wauc_32,"[5]; HepG2 glo, time point 32",0
same,hepg2_glo_emax_40,"[5]; HepG2 glo, time point 40",0
same,hepg2_glo_pod_40,"[5]; HepG2 glo, time point 40",-4.417
same,hepg2_glo_wauc_40,"[5]; HepG2 glo, time point 40",0
same,information,[1],0
CC/C(=C(\c1ccc(O)cc1)c1ccc(OCCN(C)C)cc1)c1ccccc1 [(Z)-4-Hydroxytamoxifen],Cyto(realtime)_max,[1]; [6],4.89 log10(M)*-1
same,Cyto(realtime)_median,[1]; [7],4.45 log10(M)*-1
CC=O [Acetaldehyde],Cyto(realtime)_max,[1]; [6],6.67 log10(M)*-1
same,Cyto(realtime)_median,[1]; [7],4.54 log10(M)*-1
C=C(c1ccc(C(=O)O)cc1)c1cc2c(cc1C)C(C)(C)CCC2(C)C [Bexarotene],Cyto(realtime)_max,[1],4.68 log10(M)*-1
same,Cyto(realtime)_median,[1],4.23 log10(M)*-1
"C[C@]12CC[C@@H]3c4ccc(O)cc4C[C@@H](CCCCCCCCC[S+]([O-])CCCC(F)(F)C(F)(F)F)[C@H]3[C@@H]1CC[C@@H]2O (stereo partly shown) [fulvestrant, reference compound]",cytotoxicity kinetics activity profile in the four real-time cytotoxicity assays,[1]; human,"solely active, HEK293[glo]"
"CO[C@@]12[C@H](COC(N)=O)C3=C(C(=O)C(C)=C(N)C3=O)N1C[C@@H]1N[C@@H]12 [mitomycin C, reference compound]",activity in the assay (cytotoxic effect),[5],active
"ClC(Cl)=C(c1ccc(Cl)cc1)c1ccc(Cl)cc1 [p,p'-DDE, reference compound]",cytotoxicity kinetics activity profile in the four real-time cytotoxicity assays,[1]; [8],quickly reach the maximum cytotoxic effect in at least three assays
"CCCCCCCC[N+](CCCCCCCC)(CCCCCCCC)CCCCCCCC [tetra-N-octylammonium bromide, reference compound]",EC50,[2]; 8 hrs,7.59 ± 1.48 µM
same,EC50,[2]; 16 hrs,6.18 ± 1.27 µM
same,EC50,[2]; 24 hrs,5.87 ± 1.1 µM
same,EC50,[2]; 32 hrs,6.43 ± 1 µM
same,EC50,[2]; 40 hrs,6.4 ± 0.96 µM
same,IC50,[3]; 8 hrs,5910 ± 1260 nM
same,IC50,[3]; 16 hrs,2530 ± 740 nM
same,IC50,[3]; 24 hrs,1340 ± 520 nM
same,IC50,[3]; 32 hrs,870 ± 440 nM
same,IC50,[3]; 40 hrs,790 ± 320 nM
same,EC50,[4]; 8 hrs,9.88 ± 2.1 µM
same,EC50,[4]; 16 hrs,8.01 ± 1.52 µM
same,EC50,[4]; 24 hrs,6.06 ± 1.11 µM
same,EC50,[4]; 32 hrs,6.8 µM and 6.73 µM
same,EC50,[4]; 40 hrs,7.69 ± 1.76 µM
same,IC50,[5]; 8 hrs,7.9 ± 1.62 µM
same,IC50,[5]; 16 hrs,7.53 ± 1.44 µM
same,IC50,[5]; 24 hrs,7.79 ± 1.54 µM
same,IC50,[5]; 32 hrs,8.05 ± 1.68 µM
same,IC50,[5]; 40 hrs,8.18 ± 1.91 µM
"C=CC1(C)OC(=O)N(c2cc(Cl)cc(Cl)c2)C1=O (stereo not shown) [vinclozolin, reference compound]",cytotoxicity kinetics activity profile in the four real-time cytotoxicity assays,[1],no activity in all four real-time cytotoxicity assays
Bis(tributyltin)oxide,Cyto(realtime)_max,[1],7.21 log10(M)*-1
same,Cyto(realtime)_median,[1],6.40 log10(M)*-1
C.I. Solvent Black 5,Cyto(realtime)_max,[1]; [6],5.68 log10(M)*-1
same,Cyto(realtime)_median,[1]; [7],4.42 log10(M)*-1
Triethyltin bromide,Cyto(realtime)_max,[1],6.72 log10(M)*-1
same,Cyto(realtime)_median,[1],5.42 log10(M)*-1
